Test results reported in US8686044B2, “Amide derivative, pest control agent containing the amide derivative, and use of the amide derivative” (Mitsui Chemicals Agro, Inc., priority 2008, dated 2014).

Legend:
Assay type in all cases: in vivo
Rhipicephalus sanguineus = assay: Insecticidal test for Rhipicephalus sanguineus (treated glass petri dish, Table A6); conditions: adults of Rhipicephalus sanguineus, 18 hour exposure, examined after 48 hours, in single
Method: Insecticidal Test for Rhipicephalus sanguineus
0.5 ml of a solution of acetone, the active ingredient, prepared to the prescribed dose was added dropwise into a glass petri dish with a diameter of 10 cm, and the acetone was evaporated at room temperature. About 10 adults of Rhipicephalus sanguineus per dish were added, and the dish was covered by another glass petri dish that was treated with the active ingredient in the same manner described above. After 18 hour exposure to the test substance, the adults were transferred into a glass petri dish that was not treated with the active ingredient. After 48 hours of the exposure, the conditions of the adults were examined and classified into “alive” and “dead (including a moribund condition)” to determine the death rate (in single).
As the comparative compounds, said Compounds (B), (C), and (D), and the following Compound (F) disclosed in WO2009/080203, and fipronil were used.

Ctenocephalides Felis = assay: Insecticidal test for Ctenocephalides felis, Test Example 1 (dry film in glass tube, 0.5 ml, Table A4); conditions: adults
Adoxophyes honmai = assay: Pesticidal test against Adoxophyes honmai (artificial feed dip); conditions: 144 h, concentration 1 ppm, 2-stage larvae, examined after 6 days, 25° C., read-out: pesticidal rate
Procedure, shortened: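 Thin artificial feed slices dipped 30 s in test solution at a predetermined concentration, air-dried, then offered to 2nd-stage larvae. Kept at 25° C; live and dead larvae counted after 6 days. Five larvae per group, two replicates.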

Musca domestica = assay: Pesticidal test against Musca domestica (petri dish dry film); conditions: 24 h, concentration 100 ppm, female adults, examined after 1 day, 25° C., read-out: pesticidal rate
Procedure, shortened: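 Dry film from 1 ml acetone solution of compound at a predetermined concentration, air-dried in a 9 cm petri dish; female adult flies released and dish capped. Held at 25° C; living and dead counted after 1 day. Five insects per group, two replicates.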

| Structure (SMILES) | death rate (Rhipicephalus sanguineus; 0.0431 mg/m^2) [%] | death rate (Rhipicephalus sanguineus; 0.0861 mg/m^2) [%] | death rate (Rhipicephalus sanguineus; 0.172 mg/m^2) [%] | effect in the examination after 12 hours of the exposure (Ctenocephalides Felis) | pest or weed control at 1 ppm (Adoxophyes honmai) [%] | pest or weed control at 100 ppm (Musca domestica) [%] |
| --- | --- | --- | --- | --- | --- | --- |
| CN(C(=O)c1ccccc1)c1cccc(C(=O)Nc2c(Br)cc(C(F)(C(F)(F)F)C(F)(F)F)cc2C(F)(F)F)c1F [7-1574, N-(2-bromo-4-(perfluoropropan-2-yl)-6-(trifluoromethyl)phenyl)-2-fluoro-3-(N-methylbenzamide)benzamide] | 10.0 | 100.0 | 100.0 | effective | ≥ 70 | ≥ 70 |
| CN(C(=O)c1ccc(F)cc1)c1cccc(C(=O)Nc2c(I)cc(C(F)(C(F)(F)F)C(F)(F)F)cc2C(F)(F)F)c1F [7-1733, 2-fluoro-3-(4-fluoro-N-methylbenzamide)-N-(2-iodo-4-(perfluoropropan-2-yl)-6-(trifluoromethyl)phenyl)benzamide] | 0.0 | 80.0 | 100.0 | – | ≥ 70 | ≥ 70 |
